Here are results for one compound from patent publication US9066922B2, “Pharmaceutical composition for the treatment or prevention of diseases involving obesity, diabetes, metabolic syndrome, neuro-degenerative diseases and mitochondria dysfunction diseases” (MD BIOALPHA CO., LTD., priority 2005, dated 2015).

One assay concerns AMPK and ACC. The assay is described as follows: Phosphorylation of AMPK & ACC in DIO C57BL/6 mice (Western blot). The format is in vivo. As to conditions: 50 mg/kg daily oral. The method, then:
In order to investigate anti-obesity effects of β-lapachone, β-lapachone was administered daily to diet-induced obesity (DIO) mice at a dose of 50 mg/kg via an oral route, and effects of β-lapachone on phosphorylation of AMPK and ACC, which play an important role in energy metabolism and lipogenesis in the liver and gonadal adipose tissues, were examined. […] Phosphorylated AMPK is believed to activate metabolism associated with energy. Whereas, it is believed that ACC, which is affected by activation of AMPK, is phosphorylated and lipogenic activity thereof is then inhibited, which will then exert some effects on lipid metabolism including inhibition of obesity.
On the technique in general: In western blotting, separated proteins are transferred to a membrane and probed.

The subject of assay [1] is mRNAs of ACC1, ACC2, FAS, LPL, SCD1. The assay can be described thus: Expression of genes involved in lipid metabolism in DIO mice (real-time quantitative PCR). The format is in vivo, C57BL/6 mice. As to conditions: 50 mg/kg daily oral, vs control group. The method, then:
In order to investigate anti-obesity effects of β-lapachone, β-lapachone was administered daily to diet-induced obesity (DIO) mice at a dose of 50 mg/kg via an oral route, and an attempt was made to confirm levels of mRNAs of acetyl CoA carboxylase (ACC) 1 (7,8), ACC2 (9), fatty acid synthase (FAS) (10,11), lipoprotein lipase (LPL) (12-15), and stearoyl-CoA desaturase 1 (SCD1) (16,17), which participate in lipid metabolism in the liver and gonadal adipose tissues, by real-time quantitative PCR. These enzymes are very important for lipid metabolism; it is known that ACC catalyzes formation of malonyl CoA from acetyl CoA, FAS catalyzes formation of palmitate from malonyl CoA, and SCD1 catalyzes formation of monounsaturated fat, thus playing a critical role in formation of triacylglycerol, a major energy store. As such, these enzymes are closely correlated with obesity, diabetes, and lipid metabolism-related diseases. […] Therefore, from the results of such increased or decreased expression of genes for the above-mentioned enzymes, it can be inferred that β-lapachone will be therapeutically effective substance for the treatment of metabolic syndromes.

Assay [2] relates to endothelial nitric oxide synthase (eNOS). The assay is described as follows: Phosphorylation of eNOS in HUVEC. The conditions noted are these: 10 μM. Format: cell-based, Human. The method, then:
It is well-known that activation of AMPK activates NRF-1 and facilitates mitochondrial biogenesis. In addition, NO/cGMP activates PGC-1a and NRF-1 to facilitate mitochondrial biogenesis. In order to ascertain whether β-lapachone, which activates AMPK, is involved in production of nitric oxide (NO), a degree of phosphorylation, increasing the activity of endothelial nitric oxide synthase (eNOS), was determined. In order to examine phosphorylation of eNOS by the action of β-lapachone, Human Umbilical Vein Endothelial Cells (HUVEC) were seeded onto a 60-mm plate at a density of 1×10^5 cells, and cultured in EBM2+5% FBS medium for 24 hours. The culture medium was replaced with a serum-free EBM2 medium, and cells were treated with β-lapachone (10 μM) for a predetermined period of time. Phosphorylated eNOS was observed using Anti-pS1177 eNOS.

The test system of a further assay is UCP 1 & 2 genes. The assay can be described thus: Expression of transcripts of UCP1 and UCP2 genes in DIO mice. The format is in vivo, C57BL/6 mice. As to conditions: 50 mg/kg daily oral, liver and gonadal adipose tissues. The method, then:
β-lapachone was administered daily to diet-induced obesity (DIO) mice at a dose of 50 mg/kg via an oral route, and levels of transcripts of uncoupling protein 1 & 2 (UCP 1 & 2) genes in the liver and gonadal adipose tissues was measured using real-time quantitative PCR. UCP 1 & 2 are enzymes that perform energy expenditure via heat generation, and it is reported that these enzymes function to consume energy without involving production of reactive oxygen species (ROS) and are also closely correlated with the incidence of obesity (38,39).

In assay [3] the test system is mRNAs of PPAR alpha, PPAR gamma, AOX, AMPK alpha 1 and 2, CPT1. The assay is described as follows: Expression of genes involved in energy metabolism in DIO mice. As to conditions: 50 mg/kg daily oral. Format: in vivo, C57BL/6 mice. The method, then:
β-lapachone was administered daily to diet-induced obesity (DIO) mice at a dose of 50 mg/kg via an oral route, and levels of transcripts of genes involved in energy metabolism in the liver and gonadal adipose tissues were measured using real-time quantitative PCR. Referring to enzymes shown in FIG. 11, PPAR alpha and gamma are enzymes responsible for transcriptional regulation of enzymes involved in energy expenditure (30,31), AMPK plays a central role in the maintenance of cell energy homeostasis by sensing the intracellular AMP/ATP ratio, and AOX catalyzes to activate oxidative phosphorylation via oxidation of acyl CoA which resides in a certain step of a lipid metabolism process (32,33). In addition, CPT1 is also an enzyme involved in energy metabolism, and is well-known as an enzyme that enables the passage of long chain acyl CoA into mitochondria, not taking a route toward synthesis of triacylglycerol (34,35). […] Increased expression levels of such genes show the possibility that β-lapachone can be as therapeutic for the treatment of energy metabolism-related diseases.

[4] abbreviates: liver and gonadal adipose tissues.

Consider `CC1(C)CCC2=C(O1)c1ccccc1C(=O)C2=O` [Compound 1, β-Lapachone], for which, in the assay with AMPK and ACC, the “phosphorylation of AMPK and ACC in the gonadal and liver tissues” value is “has an effect on phosphorylation of AMPK and ACC”. Also, in assay [1] (setting [4]), the “expression level of mRNA of ACC1” value was “remarkably decreased”, the “expression level of mRNA of ACC2” value is listed as “remarkably decreased”, the “expression level of mRNA of FAS” value is “remarkably decreased” and the “expression level of mRNA of LPL (listed among decreased)” value is given as “remarkably decreased”. In assay [1] (setting [4]), the “expression level of mRNA of SCD1” value was “remarkably decreased”. Also, in assay [1], the “LPL mRNA levels, increase” value worked out at 2 fold. In assay [2], the “phosphorylation of eNOS after the maximum” value was “gradually diminished, thereby not observed 2 hours later” and the “time of maximum increase of phosphorylation of eNOS (Anti-pS1177 eNOS)” value amounted to 30 min. Besides, in the assay on UCP 1 & 2 genes, the “UCP1 mRNA level” value is on record as “significant increases in mRNA levels” and the “UCP2 mRNA level” value is listed as “significant increases in mRNA levels”. Also, in assay [3] (setting [4]), the “PPAR alpha mRNA level” value was “not changed” and the “PPAR gamma mRNA level” value was “about two-fold increases”. In assay [3] (vs control group), the “AMPK alpha 1 mRNA level” value is “increased levels in mRNAs”, the “AMPK alpha 2 mRNA level” value is “increased levels in mRNAs”, the “acyl CoA oxidase (AOX) mRNA level” value was “increased levels in mRNAs” and the “carnitine palmitoyltransferase 1 mRNA level” value is listed as “increased levels in mRNAs”.
